Results as given in publication PMC10776879, “In vitro screening of topical formulation excipients for epithelial toxicity in cancerous and non-cancerous cell lines” (EXCLI Journal, 2023).
In brackets after ≈: the same amount, converted by molar mass.

What was measured:
[1] = test system: WM164 human melanoma cells; assay: Crystal violet (CV) cell viability assay; type: cell-based; conditions: Homo sapiens, 24 h exposure, read-out: IC50 (μg/ml) [Mean, Range] WM164, CV
Protocol: (§1) Cells were seeded into the 96-well cell culture plates in 100 μl of complete culture medium at the initial density of 2x10^4 (cells/ml). Cells were incubated under 5 % CO2 at 37 °C for 24 hours for adhering to the wells and medium was then replaced with 100 μl of fresh medium containing excipient solution at the required final concentration. Each concentration was tested in minimum of 5 replicates and control cells were exposed to the culture medium only. Fixed cells were stained with crystal violet dye solution to screen cell viability under treatment conditions. Cells are fixed by 4 % (v/v) paraformaldehyde in PBS for 10 minutes. Crystal violet assay of 0.05 % (v/v) is prepared by 1:4 dilution of the crystal violet stock solution (v/v) in 4 % (v/v) paraformaldehyde. The fixed cells were washed twice with PBS and covered with 250 µl crystal violet working solution. The plates were placed on a bench rocker with medium frequency (20 oscillations per minute) at room temperature for 20 minutes. The plates were emptied and washed under indirect stream of tap water for three times and inverted on filter paper. The plates were taped gently on the paper to remove any remaining liquid and air dried with no lid for minimum of 2 hr at room temperature. After the plates were photographed, blue dye was dissolved in DMSO and the optical density of each well was measured at 570 nm (OD570) with a plate reader (Multiskan™ FC Microplate Photometer). The effect of each treatment was calculated as the percentage of crystal viable staining of surviving attached cells, against the negative control (cells treated with culture medium only). To assess the excipients' cytotoxicity, the dose-response effect of each excipient was measured against the cell lines. The cytotoxicity value for each concentration of the excipients was expressed as percentage of viability against the untreated control wells (the optical density of untreated cells was set at 100 % viability) to construct dose-response curves. […] All IC50 values were expressed as µg/ml. The percentage viability was calculated as follows: […]

[2] = test system: WM1366 human melanoma cells; assay: Crystal violet (CV) cell viability assay; type: cell-based; conditions: Homo sapiens, 24 h exposure, read-out: IC50 (μg/ml) [Mean, Range] WM1366, CV
Protocol: as §1

D24 human melanoma cells [3] = assay: Crystal violet (CV) cell viability assay; type: cell-based; conditions: Homo sapiens, 24 h exposure, read-out: IC50 (μg/ml) [Mean, Range] D24, CV
Protocol: as §1

[4] = test system: HaCaT human keratinocytes; assay: Crystal violet (CV) cell viability assay; type: cell-based; conditions: Homo sapiens, 24 h exposure, read-out: IC50 (μg/ml) [Mean, Range] HaCaT, CV
Protocol: as §1

[5] = test system: WM164 human melanoma cells; assay: Trypan blue (TB) exclusion assay, membrane integrity; type: cell-based; conditions: 24 h exposure, read-out: IC50 (μg/ml) WM164, TB
Protocol: (§2) The dye exclusion test is routinely applied in laboratories to assess the number of live cells present in a cell suspension. […] In this assay a cell suspension is mixed with dye and then visualized to distinguish the cells that take up dye from the ones that exclude it. Viable cells will be seen as a clear cytoplasm whereas a dead cell will appear with a blue cytoplasm (Strober, 2001[86]). After cell incubation for 24 h, the excipient-containing medium was removed, and cells were trypsinized using trypsin-EDTA to obtain cell suspension. 20 µl of trypan blue dye was mixed thoroughly with 20 µl cell suspension by pipetting ups and downs and loaded into the cell counting slide. Cell numbers were detected by the automated cell counting machine. To find the total number of viable cells in one ml of aliquot, the number of viable cells was multiplied by 2 (the dilution factor for trypan blue). Viable cell percentage was calculated as follows: […]

[6] = test system: WM1366 human melanoma cells; assay: as above; type: cell-based; conditions: 24 h exposure, read-out: IC50 (μg/ml) WM1366, TB
Protocol: as §2

[7] = test system: primary skin fibroblasts (FB); assay: as above; type: cell-based; conditions: Homo sapiens, Skin fibroblast, 24 h exposure, read-out: IC50 (μg/ml) FB, TB
Protocol: as §2

D24 human melanoma cells [8] = assay: as above; type: cell-based; conditions: 24 h exposure, read-out: IC50 (μg/ml) D24, TB
Protocol: as §2

[9] = test system: HaCaT human keratinocytes; assay: as above; type: cell-based; conditions: 24 h exposure, read-out: IC50 (μg/ml) HaCaT, TB
Protocol: as §2

[10] = test system: primary skin fibroblasts (FB); assay: MTT cell viability assay; type: cell-based, human; conditions: Homo sapiens, Skin fibroblast, 24 h exposure, read-out: IC50 (μg/ml) [Mean, Range] FB, MTT
Protocol: (§3) Cells were seeded into the 96-well cell culture plates in 100 μl of complete culture medium at the initial density of 2x10^4 (cells/ml). Cells were incubated under 5 % CO2 at 37 °C for 24 hours for adhering to the wells and medium was then replaced with 100 μl of fresh medium containing excipient solution at the required final concentration. Each concentration was tested in minimum of 5 replicates and control cells were exposed to the culture medium only.
(§4) After cell incubation for 24 h, the excipient-containing medium was removed, and 100 μl of MTT in PBS (5 mg/ml) diluted 1:10 in medium was then added in the dark. Plates were further incubated for 2-3 h, after which time the medium was removed and the purple formazan product was dissolved by adding 200 μl of DMSO to each well. Plates were then placed in a shaker for 5 min at room temperature and the absorbance of the resulting solutions was measured at 570 nm using a microplate reader (Multiskan™ FC Microplate Photometer). The effect of each treatment was calculated as the percentage of tetrazolium salt reduction by viable cells against the negative control (cells treated with culture medium only).
(§5) To assess the excipients' cytotoxicity, the dose-response effect of each excipient was measured against the cell lines. The cytotoxicity value for each concentration of the excipients was expressed as percentage of viability against the untreated control wells (the optical density of untreated cells was set at 100 % viability) to construct dose-response curves.
(§6) All IC50 values were expressed as µg/ml. The percentage viability was calculated as follows: […]

[11] = Table 1, physicochemical information of the excipients, source not given; cited from earlier work
[12] = test system: primary skin fibroblasts (FB); assay: Crystal violet (CV) cell viability assay; type: cell-based, human; conditions: Homo sapiens, Skin fibroblast, 24 h exposure, read-out: IC50 (μg/ml) [Mean, Range] FB, CV
Protocol: as §1

[13] = test system: WM164 human melanoma cells; assay: MTT cell viability assay; type: cell-based; conditions: Homo sapiens, 24 h exposure, read-out: IC50 (μg/ml) [Mean, Range] WM164, MTT
Protocol: as §3, §4, §5, §6

[14] = test system: WM1366 human melanoma cells; assay: MTT cell viability assay; type: cell-based; conditions: Homo sapiens, 24 h exposure, read-out: IC50 (μg/ml) [Mean, Range] WM1366, MTT
Protocol: as §3, §4, §5, §6

D24 human melanoma cells [15] = assay: MTT cell viability assay; type: cell-based; conditions: Homo sapiens, 24 h exposure, read-out: IC50 (μg/ml) [Mean, Range] D24, MTT
Protocol: as §3, §4, §5, §6

[16] = test system: HaCaT human keratinocytes; assay: MTT cell viability assay; type: cell-based; conditions: Homo sapiens, 24 h exposure, read-out: IC50 (μg/ml) [Mean, Range] HaCaT, MTT
Protocol: as §3, §4, §5, §6

[17] = test system: WM164 human melanoma cells; assay: Reactive Oxygen Species evaluation with dihydrorhodamine 123; type: cell-based; conditions: greatest applied concentration, 24 h
Protocol: (§7) The oxidant-sensitive dye, dihydrorhodamine 123 (DHR), was used to detect intracellular ROS level. Cells were plated in the flat bottom 96-well plates to sub confluent (60-70 %) then the medium was removed and replaced with the pre-warmed treatment solutions (medium containing different concentration of the excipients). After 24 hours incubation with treatment solutions, medium was removed and replaced with the 100 μl of pre-warmed dying buffer (Hank's balanced salt solution (HBSS) containing 12 µM DHR dye). Cells were incubated for 30 minutes at 37 °C in a humidified 5 % CO2 atmosphere in dark. The cellular fluorescence generated by the DHR oxidation was measured at 485 nm (OD 485) using a microplate reader (Multiskan™ FC Microplate Photometer). Hydrogen peroxide (H2O2) treatment (800, 400, 200, and 100 µM)/ (27, 13.5, 6.75, 3.4 µg/ml) was used as positive control and dying buffer with no cells as blank control. Data points were recorded every 10 minutes for 60 minutes and exported for analysis by Excel software. The ROS level is calculated as the difference between (Ftest/ Fcontrol) and expressed as percentages of the control value using this formulation: […]
(§8) where Ftest and Fcontrol are the fluorescence intensities of the cells exposed to the treatments and the cells with only medium, respectively. Fluorescence intensity of the blank wells were measured at every measurement time points and recorded to compare with the control wells.

[18] = test system: WM1366 human melanoma cells; assay: as above; type: cell-based; conditions: greatest applied concentration, 24 h
Protocol: as §7, §8

D24 human melanoma cells [19] = assay: as above; type: cell-based; conditions: greatest applied concentration, 24 h
Protocol: as §7, §8

[20] = test system: HaCaT human keratinocytes; assay: as above; type: cell-based; conditions: greatest applied concentration, 24 h
Protocol: as §7, §8

[21] = test system: human cell lines (WM164, WM1366, D24, HaCaT, FB); assay: MTT and CV cytotoxicity, statements over all tested cell lines; type: cell-based
Protocol: as §3, §4
Fixed cells were stained with crystal violet dye solution to screen cell viability under treatment conditions. Cells are fixed by 4 % (v/v) paraformaldehyde in PBS for 10 minutes. Crystal violet assay of 0.05 % (v/v) is prepared by 1:4 dilution of the crystal violet stock solution (v/v) in 4 % (v/v) paraformaldehyde. The fixed cells were washed twice with PBS and covered with 250 µl crystal violet working solution. The plates were placed on a bench rocker with medium frequency (20 oscillations per minute) at room temperature for 20 minutes. The plates were emptied and washed under indirect stream of tap water for three times and inverted on filter paper. The plates were taped gently on the paper to remove any remaining liquid and air dried with no lid for minimum of 2 hr at room temperature. After the plates were photographed, blue dye was dissolved in DMSO and the optical density of each well was measured at 570 nm (OD570) with a plate reader (Multiskan™ FC Microplate Photometer). The effect of each treatment was calculated as the percentage of crystal viable staining of surviving attached cells, against the negative control (cells treated with culture medium only).
as §5
The cytotoxicity of the excipients was expressed in terms of an IC50 values (concentration causing 50 % death of the cell population) (Goldberg and Frazier, 1989[37]). […] All IC50 values were expressed as µg/ml. The percentage viability was calculated as follows: […]

[22] = test system: human cervical cancer (HeLa) cells; set-up: method as in Ujhelyi et al., 2012[89], 2015[90]; conditions: HeLa cell line; ref Ujhelyi et al., 2012[89], 2015[90]; cited from earlier work
[23] = test system: primary skin fibroblasts (FB); assay: Reactive Oxygen Species evaluation with dihydrorhodamine 123; type: cell-based, human; conditions: greatest applied concentration, 24 h
Protocol: as §7, with “Hydrogen peroxide (H2O2) treatment (800, 400, 200, and 100 µM)/ (27, 13.5, 6.75, 3.4 µg/ml) was used as positive control and dying buffer with no cells as blank control.” left out
as §8

CCOCCOCCO [Transcutol®, diethylene glycol monoethyl ether]
IC50 [1]: 2.03 µg/mL (≈ 15.1 µM) | IC50 [2]: 3.55 µg/mL (≈ 26.5 µM) | IC50 (D24 human melanoma cells [3]): 5.01 µg/mL (≈ 37.3 µM) | IC50 [4]: 2.91 µg/mL (≈ 21.7 µM) | IC50 [5]: 14.6 µg/mL (≈ 108 µM) | IC50 [6]: 13.7 µg/mL (≈ 102 µM) | IC50 [7]: 7.08 µg/mL (≈ 52.8 µM) | IC50 (D24 human melanoma cells [8]): 21.6 µg/mL (≈ 161 µM) | IC50 [9]: 6.57 µg/mL (≈ 49 µM) | IC50 [10]: 5.54 µg/mL (≈ 41.3 µM) | HLB [11]: 4 | IC50 [12]: 5.97 µg/mL (≈ 44.5 µM) | IC50 [13]: 2.12 µg/mL (≈ 15.8 µM) | IC50 [14]: 3.49 µg/mL (≈ 26 µM) | IC50 (D24 human melanoma cells [15]): 4.88 µg/mL (≈ 36.4 µM) | IC50 [16]: 3.32 µg/mL (≈ 24.7 µM) | ROS production increase vs untreated control [17]: 22.5% | ROS production increase vs untreated control [18]: 18.1% | ROS production increase vs untreated control (D24 human melanoma cells [19]): 24.9% | ROS production increase vs untreated control [20]: 29.4% | IC50 ([21]; Homo sapiens, over the tested cell lines, this study, read-out: IC50): 2 to 5.5 µg/mL (≈ 14.9 to 41 µM) | Irritancy ranking ([21]; rank by MTT and CV IC50 over all cell lines, 1 = most cytotoxic): 4 | IC50, MTT endpoint [22]: 34 µg/mL (≈ 253 µM) | ROS production increase vs untreated control [23]: 4.3%
